These results are taken from ChEMBL document CHEMBL4033700, “From a novel HTS hit to potent, selective, and orally bioavailable KDM5 inhibitors” (Bioorg Med Chem Lett, 2017).

Structures are written as SMILES. In brackets after ≈: the same amount, converted by molar mass.

Data set [1] concerns the target T1, Lysine-specific demethylase 4C (Homo sapiens, UniProt Q9H3R0).
T1 sequence (Q9H3R0 whole entry): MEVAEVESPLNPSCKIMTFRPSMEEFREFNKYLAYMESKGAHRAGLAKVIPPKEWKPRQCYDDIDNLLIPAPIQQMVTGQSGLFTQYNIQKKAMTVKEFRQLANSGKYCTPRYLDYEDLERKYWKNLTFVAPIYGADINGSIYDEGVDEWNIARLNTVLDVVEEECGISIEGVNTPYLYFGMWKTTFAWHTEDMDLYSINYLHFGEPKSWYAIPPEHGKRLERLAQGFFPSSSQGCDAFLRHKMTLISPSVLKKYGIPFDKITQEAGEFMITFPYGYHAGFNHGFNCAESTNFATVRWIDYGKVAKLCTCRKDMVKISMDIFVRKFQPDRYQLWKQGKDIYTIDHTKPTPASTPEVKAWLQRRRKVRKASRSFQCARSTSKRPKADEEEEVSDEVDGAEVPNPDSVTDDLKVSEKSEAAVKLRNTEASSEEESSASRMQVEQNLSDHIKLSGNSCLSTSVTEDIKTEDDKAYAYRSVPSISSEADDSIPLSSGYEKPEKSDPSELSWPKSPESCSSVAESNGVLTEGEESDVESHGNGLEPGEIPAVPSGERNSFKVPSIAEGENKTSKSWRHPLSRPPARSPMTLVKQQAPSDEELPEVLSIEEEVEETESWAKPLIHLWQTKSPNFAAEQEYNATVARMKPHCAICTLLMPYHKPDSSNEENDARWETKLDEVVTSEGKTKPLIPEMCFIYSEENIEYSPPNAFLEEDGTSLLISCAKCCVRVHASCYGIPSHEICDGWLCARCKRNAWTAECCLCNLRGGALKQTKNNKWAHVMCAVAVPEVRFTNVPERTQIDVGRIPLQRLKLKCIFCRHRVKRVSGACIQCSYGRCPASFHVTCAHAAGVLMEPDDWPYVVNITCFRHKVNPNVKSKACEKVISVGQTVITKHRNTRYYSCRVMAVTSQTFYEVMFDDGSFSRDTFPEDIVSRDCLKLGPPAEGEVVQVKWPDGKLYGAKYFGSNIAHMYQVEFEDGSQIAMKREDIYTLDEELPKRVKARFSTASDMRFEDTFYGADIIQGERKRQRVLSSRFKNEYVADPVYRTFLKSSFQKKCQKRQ
Briefly: Inhibition of recombinant human N-terminal FLAG-tagged KDM4C expressed in baculovirus infected Sf9 insect cells using H3K9me3 peptide as substrate after 30 to 45 mins by TR-FRET assay.

The nature of data set [2]: Lipophilicity, log D of the compound at pH 7.4. In kind it is physicochemical. The note with it: buffer.
Data set [3] has as its target T2, Lysine-specific demethylase 2B (Homo sapiens, UniProt Q8NHM5).
T2 sequence (Q8NHM5 whole entry): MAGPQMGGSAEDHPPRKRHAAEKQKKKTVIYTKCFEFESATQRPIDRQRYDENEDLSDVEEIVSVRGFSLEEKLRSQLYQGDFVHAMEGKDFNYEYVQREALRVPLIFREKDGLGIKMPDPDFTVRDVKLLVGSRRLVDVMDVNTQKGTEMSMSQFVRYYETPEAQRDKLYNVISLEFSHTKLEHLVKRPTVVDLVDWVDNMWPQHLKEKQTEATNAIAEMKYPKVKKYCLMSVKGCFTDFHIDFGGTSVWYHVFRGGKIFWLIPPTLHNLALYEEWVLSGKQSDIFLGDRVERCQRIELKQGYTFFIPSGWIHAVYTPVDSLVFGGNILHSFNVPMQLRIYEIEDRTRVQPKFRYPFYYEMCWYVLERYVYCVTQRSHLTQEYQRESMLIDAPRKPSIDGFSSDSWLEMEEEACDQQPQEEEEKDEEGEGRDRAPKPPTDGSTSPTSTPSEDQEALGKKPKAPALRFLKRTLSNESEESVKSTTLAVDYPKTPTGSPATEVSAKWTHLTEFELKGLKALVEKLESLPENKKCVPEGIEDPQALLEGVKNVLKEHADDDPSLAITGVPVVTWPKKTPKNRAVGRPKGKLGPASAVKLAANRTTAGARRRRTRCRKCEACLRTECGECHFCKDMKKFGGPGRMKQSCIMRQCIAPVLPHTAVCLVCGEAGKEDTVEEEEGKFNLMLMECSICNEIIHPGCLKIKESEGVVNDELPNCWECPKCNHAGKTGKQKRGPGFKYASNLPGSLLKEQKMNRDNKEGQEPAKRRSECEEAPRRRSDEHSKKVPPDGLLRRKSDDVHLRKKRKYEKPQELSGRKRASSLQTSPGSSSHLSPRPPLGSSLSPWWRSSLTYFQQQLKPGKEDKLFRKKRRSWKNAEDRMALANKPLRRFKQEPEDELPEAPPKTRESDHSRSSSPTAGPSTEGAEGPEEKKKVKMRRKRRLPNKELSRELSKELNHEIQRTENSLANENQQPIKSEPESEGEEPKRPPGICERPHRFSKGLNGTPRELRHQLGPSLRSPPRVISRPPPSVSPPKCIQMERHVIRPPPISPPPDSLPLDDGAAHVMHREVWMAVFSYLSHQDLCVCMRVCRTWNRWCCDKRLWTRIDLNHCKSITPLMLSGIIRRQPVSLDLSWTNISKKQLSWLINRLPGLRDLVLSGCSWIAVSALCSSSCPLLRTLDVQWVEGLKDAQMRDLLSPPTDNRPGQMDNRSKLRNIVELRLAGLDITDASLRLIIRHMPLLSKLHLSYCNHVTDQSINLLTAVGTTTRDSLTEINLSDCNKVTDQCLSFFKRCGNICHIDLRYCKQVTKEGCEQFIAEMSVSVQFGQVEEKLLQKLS
Kind of data set: Inhibition of recombinant human N-terminal FLAG-tagged KDM2B expressed in baculovirus infected Sf9 insect cells using H3K36me2 peptide as substrate after 30 to 45 mins by TR-FRET assay. Background: In TR-FRET formats the signal depends on donor and acceptor labels being close together.

In data set [4] the target is Lysine-specific demethylase 3B (Homo sapiens, UniProt Q7LBC6). Briefly: Inhibition of recombinant human N-terminal FLAG-tagged KDM3B expressed in baculovirus infected Sf9 insect cells using H3K9me1 peptide as substrate after 30 to 45 mins by TR-FRET assay.
Chain of Lysine-specific demethylase 3B (Q7LBC6 whole entry): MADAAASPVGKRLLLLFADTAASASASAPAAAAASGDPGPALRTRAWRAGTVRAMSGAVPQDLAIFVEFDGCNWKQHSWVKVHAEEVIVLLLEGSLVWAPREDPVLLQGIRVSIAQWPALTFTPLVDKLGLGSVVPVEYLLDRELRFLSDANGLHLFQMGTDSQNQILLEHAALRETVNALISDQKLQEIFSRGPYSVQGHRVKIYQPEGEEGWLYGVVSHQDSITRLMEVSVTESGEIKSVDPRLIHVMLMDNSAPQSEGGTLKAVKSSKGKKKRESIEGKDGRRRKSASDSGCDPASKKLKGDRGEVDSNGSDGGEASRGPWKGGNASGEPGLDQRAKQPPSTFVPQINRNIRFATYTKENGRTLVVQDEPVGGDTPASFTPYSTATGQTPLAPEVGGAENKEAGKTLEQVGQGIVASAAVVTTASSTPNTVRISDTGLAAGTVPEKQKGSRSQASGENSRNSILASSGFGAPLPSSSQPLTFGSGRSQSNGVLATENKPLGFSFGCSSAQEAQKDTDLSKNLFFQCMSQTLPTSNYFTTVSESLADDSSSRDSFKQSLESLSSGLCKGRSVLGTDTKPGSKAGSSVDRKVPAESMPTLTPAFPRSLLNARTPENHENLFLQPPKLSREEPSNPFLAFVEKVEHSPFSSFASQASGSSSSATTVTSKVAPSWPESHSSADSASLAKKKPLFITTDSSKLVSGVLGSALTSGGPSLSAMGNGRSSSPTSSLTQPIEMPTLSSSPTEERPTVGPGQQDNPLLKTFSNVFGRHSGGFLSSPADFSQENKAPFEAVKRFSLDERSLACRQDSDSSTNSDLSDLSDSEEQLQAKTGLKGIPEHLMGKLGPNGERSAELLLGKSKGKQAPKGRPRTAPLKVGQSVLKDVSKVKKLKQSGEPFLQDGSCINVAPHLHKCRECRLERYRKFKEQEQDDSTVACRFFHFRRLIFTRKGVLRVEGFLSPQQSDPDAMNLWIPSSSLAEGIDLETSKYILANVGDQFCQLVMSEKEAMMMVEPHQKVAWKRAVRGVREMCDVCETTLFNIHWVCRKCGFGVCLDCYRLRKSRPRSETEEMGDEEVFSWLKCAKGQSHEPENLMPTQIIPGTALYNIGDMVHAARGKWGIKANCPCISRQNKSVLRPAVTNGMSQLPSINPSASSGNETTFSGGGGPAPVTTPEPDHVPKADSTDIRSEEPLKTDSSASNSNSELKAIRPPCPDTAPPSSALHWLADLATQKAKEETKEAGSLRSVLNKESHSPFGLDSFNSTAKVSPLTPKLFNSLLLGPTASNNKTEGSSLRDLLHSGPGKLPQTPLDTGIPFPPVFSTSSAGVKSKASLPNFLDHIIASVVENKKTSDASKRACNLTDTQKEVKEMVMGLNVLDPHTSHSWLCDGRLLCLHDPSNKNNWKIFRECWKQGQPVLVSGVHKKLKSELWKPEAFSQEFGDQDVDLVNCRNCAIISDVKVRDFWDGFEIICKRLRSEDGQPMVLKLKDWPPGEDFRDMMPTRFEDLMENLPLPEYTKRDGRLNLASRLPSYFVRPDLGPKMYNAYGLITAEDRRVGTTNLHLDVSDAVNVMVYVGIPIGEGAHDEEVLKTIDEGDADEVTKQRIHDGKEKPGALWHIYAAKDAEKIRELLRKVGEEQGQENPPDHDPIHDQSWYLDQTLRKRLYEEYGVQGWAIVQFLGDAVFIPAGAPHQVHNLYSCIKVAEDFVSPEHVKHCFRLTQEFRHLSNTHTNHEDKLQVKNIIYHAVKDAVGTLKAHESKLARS
The nature of data set [5]: Kinetic solubility of the compound. In kind it is physicochemical. The note with it: read-out: Kinetic_solubility.
Data set [6] concerns the target T3, Lysine-specific demethylase 5A (Homo sapiens, UniProt P29375). Kind of data set: Inhibition of KDM5A in human PC9 cells assessed as increase in H3K4me3 level after 5 days by mass-spectrometric method. In kind it is cell-based.
The target of data set [7] is Lysine-specific histone demethylase 1A (Homo sapiens, UniProt O60341). Briefly: Inhibition of KDM1A (unknown origin).
Data set [8] addresses Lysine-specific demethylase 6A (Homo sapiens, UniProt O15550). Kind of data set: Inhibition of recombinant human N-terminal FLAG-tagged KDM6A expressed in baculovirus infected Sf9 insect cells using H3K27me3 peptide as substrate after 30 to 45 mins by TR-FRET assay.
Data set [9] concerns the target T3, Lysine-specific demethylase 5A. Briefly: Inhibition of recombinant human N-terminal FLAG-tagged KDM5A expressed in baculovirus infected Sf9 insect cells using H3K4me3 peptide as substrate after 30 to 45 mins by TR-FRET assay.
In data set [10] the target is Histone lysine demethylase PHF8 (Homo sapiens, UniProt Q9UPP1). Kind of data set: Inhibition of recombinant human N-terminal FLAG-tagged KDM7B expressed in baculovirus infected Sf9 insect cells using H3K9me1 peptide as substrate after 30 to 45 mins by TR-FRET assay.
Chain of Histone lysine demethylase PHF8 (Q9UPP1 whole entry): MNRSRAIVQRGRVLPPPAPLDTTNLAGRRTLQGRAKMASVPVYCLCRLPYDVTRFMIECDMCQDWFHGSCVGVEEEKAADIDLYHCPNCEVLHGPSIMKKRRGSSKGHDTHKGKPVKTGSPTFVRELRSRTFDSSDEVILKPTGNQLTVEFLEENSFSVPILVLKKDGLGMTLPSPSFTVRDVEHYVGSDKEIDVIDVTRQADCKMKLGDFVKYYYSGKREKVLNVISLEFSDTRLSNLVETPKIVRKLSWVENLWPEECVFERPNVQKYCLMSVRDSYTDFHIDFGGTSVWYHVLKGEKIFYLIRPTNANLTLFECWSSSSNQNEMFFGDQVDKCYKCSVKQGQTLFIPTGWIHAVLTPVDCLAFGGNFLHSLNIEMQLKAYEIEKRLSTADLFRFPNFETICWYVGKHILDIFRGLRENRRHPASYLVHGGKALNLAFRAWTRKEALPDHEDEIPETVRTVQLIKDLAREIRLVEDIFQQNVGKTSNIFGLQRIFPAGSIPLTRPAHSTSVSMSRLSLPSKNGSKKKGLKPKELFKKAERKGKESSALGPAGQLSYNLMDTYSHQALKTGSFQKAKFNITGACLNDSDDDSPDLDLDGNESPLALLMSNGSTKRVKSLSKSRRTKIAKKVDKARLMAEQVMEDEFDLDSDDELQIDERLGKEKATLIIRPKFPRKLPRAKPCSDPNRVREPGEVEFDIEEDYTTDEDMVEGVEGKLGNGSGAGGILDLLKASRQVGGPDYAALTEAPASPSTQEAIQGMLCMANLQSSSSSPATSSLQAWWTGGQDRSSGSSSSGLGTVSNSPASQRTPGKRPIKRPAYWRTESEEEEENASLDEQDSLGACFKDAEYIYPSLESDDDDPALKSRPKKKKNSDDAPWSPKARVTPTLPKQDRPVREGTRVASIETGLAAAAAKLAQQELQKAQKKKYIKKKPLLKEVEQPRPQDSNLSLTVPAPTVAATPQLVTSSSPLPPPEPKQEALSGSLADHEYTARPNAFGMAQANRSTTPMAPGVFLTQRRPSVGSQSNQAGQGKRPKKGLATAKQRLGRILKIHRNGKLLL
Data set [11] in a line: Clearance in CD-1 mouse plasma at 1 mg/kg, iv or 5 mg/kg, po. In kind it is ADME, organism-based.
Data set [12] is described as follows: Hepatic clearance in mouse liver microsomes. In kind it is ADME, microsome. A general note: Liver microsomes are a subcellular fraction often used to study metabolism.
A short description of data set [13]: Hepatic clearance in human hepatocytes. In kind it is ADME, cell-based, Hepatocyte.
A short description of data set [14]: Protein binding in mouse plasma. Particulars: read-out: PPB (converted). In kind it is ADME, cell-free.
Data set [15] can be described thus: Protein binding in human plasma. In kind it is ADME, cell-free. The note with it: read-out: PPB (converted).
Data set [16] can be described thus: Protein binding in rat plasma. In kind it is ADME, cell-free. Particulars: read-out: PPB (converted).
A short description of data set [17]: Hepatic clearance in rat hepatocytes. In kind it is ADME, cell-based, Hepatocyte.
The nature of data set [18]: Hepatic clearance in mouse hepatocytes. In kind it is ADME, cell-based, Hepatocyte.
Data set [19] can be described thus: Oral bioavailability in CD-1 mouse at 5 mg/kg. In kind it is ADME, organism-based. Particulars: in vivo.
Data set [20] is described as follows: Hepatic clearance in human liver microsomes. In kind it is ADME, microsome.
Data set [21] can be described thus: Volume of distribution in CD-1 mouse plasma at 1 mg/kg, iv or 5 mg/kg, po. In kind it is ADME, organism-based.
The nature of data set [22]: Half-life in CD-1 mouse plasma at 1 mg/kg, iv or 5 mg/kg, po. In kind it is ADME, organism-based.
A short description of data set [23]: Hepatic clearance in rat liver microsomes. In kind it is ADME, microsome.

The term IC50 denotes the concentration needed to halve the response being measured. As a reminder, the logD is lipophilicity at a set pH, counting ionised and neutral species. Lower therefore signals lower lipophilicity. One may read the EC50 as the midpoint of the concentration-response curve. In general, bioavailability refers to dose-corrected exposure relative to a reference, in per cent. A high value points to good availability. For orientation: half-life means the time in which the quantity being followed falls by half. The low end stands for rapid decline, the high end for slow decline.

T3 sequence (P29375 whole entry): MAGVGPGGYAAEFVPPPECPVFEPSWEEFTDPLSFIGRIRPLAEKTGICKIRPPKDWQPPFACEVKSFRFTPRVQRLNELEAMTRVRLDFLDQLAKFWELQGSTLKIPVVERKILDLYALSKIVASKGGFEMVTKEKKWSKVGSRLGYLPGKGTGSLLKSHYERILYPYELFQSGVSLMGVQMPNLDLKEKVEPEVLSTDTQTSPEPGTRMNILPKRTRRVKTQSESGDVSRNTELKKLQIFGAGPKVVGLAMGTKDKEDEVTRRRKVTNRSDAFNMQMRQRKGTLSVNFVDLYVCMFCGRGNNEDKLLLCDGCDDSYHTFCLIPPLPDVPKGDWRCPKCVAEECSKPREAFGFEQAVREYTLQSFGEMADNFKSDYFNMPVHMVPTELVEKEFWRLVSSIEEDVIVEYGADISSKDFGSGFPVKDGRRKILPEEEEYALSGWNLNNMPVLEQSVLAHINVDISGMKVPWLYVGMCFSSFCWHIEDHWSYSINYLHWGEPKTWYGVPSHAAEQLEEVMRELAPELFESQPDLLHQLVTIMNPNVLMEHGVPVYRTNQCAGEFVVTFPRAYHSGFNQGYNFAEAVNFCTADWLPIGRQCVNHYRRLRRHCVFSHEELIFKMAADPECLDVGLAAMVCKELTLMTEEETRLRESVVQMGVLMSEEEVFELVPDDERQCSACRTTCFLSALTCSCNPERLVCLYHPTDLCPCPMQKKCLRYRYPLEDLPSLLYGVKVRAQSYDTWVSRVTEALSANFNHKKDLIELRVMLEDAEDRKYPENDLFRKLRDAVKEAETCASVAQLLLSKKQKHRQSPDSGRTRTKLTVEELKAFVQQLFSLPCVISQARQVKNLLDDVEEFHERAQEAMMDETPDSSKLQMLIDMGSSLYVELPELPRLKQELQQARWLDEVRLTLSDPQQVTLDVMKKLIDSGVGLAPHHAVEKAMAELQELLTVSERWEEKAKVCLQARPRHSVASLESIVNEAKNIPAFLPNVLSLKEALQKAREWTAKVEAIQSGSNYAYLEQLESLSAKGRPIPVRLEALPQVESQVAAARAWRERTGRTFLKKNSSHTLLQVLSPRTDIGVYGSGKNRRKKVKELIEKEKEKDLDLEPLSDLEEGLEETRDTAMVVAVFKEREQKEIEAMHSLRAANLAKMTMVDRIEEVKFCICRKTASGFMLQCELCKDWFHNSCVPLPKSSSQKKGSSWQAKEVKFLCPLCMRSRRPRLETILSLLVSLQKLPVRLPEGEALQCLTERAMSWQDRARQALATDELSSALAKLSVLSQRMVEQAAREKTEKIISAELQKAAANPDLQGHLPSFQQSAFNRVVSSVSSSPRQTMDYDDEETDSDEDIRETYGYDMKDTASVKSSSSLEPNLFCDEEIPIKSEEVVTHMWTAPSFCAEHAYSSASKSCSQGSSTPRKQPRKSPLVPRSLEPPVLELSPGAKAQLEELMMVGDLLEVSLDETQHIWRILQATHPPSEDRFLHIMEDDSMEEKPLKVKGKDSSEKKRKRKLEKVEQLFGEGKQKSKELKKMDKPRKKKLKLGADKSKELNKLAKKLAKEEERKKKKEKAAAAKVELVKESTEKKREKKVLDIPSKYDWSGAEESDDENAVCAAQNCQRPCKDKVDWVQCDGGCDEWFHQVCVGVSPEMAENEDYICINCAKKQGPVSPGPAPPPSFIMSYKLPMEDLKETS

Consider `Cc1cc(-c2cnn(C)c2)cc(C2CCN(C(=O)c3cc(C(C)C)n[nH]3)C2)n1` (racemic), for which the IC50 in data set [1] was more than 25 µM; in [3], more than 25 µM; in [4], more than 25 µM; in [7] it was more than 25 µM; in [8], more than 25 µM; in data set [9], 0.26 µM. Further, the IC50 in [10] was more than 25 µM. Moreover, the logD in data set [2] was 2.8. For the same molecule, the solubility kinetic in [5] stood at 56 µM (≈ 21.2 µg/mL). Also, the 50% effective concentration (EC50) in data set [6] (read-out: EC50) is more than 30 µM.
Take `Cc1cc(-c2cnn(C)c2)cc(C2CCN(C(=O)c3cc(C(C)C)n[nH]3)C2)n1` (stereo in doubt; 9): the values for the IC50 in data set [1] and in data set [9] were 13.3 µM and 0.16 µM, respectively. In data set [11], the clearance was 99.9 mL/min/kg. The CLhep predicted in [12] was 69 mL/min/kg; in data set [13], 12 mL/min/kg; in data set [17] it was 39 mL/min/kg; in [18], 66 mL/min/kg; in data set [20], 7 mL/min/kg; in data set [23], 37 mL/min/kg. Besides, the fraction unbound in data set [14] was 0.043; in data set [15] it was 0.045; in [16], 0.027. Further, in data set [6], the EC50 is more than 30 µM. For the same molecule, the bioavailability in data set [19] turned out to be 94%. Besides, in data set [21], the Vd was 2.1 L/kg. The half-life in data set [22] was 18 min.
